# Measurements as given in ChEMBL document CHEMBL5029168, “Discovery of novel ID2 antagonists from pharmacophore-based virtual screening as potential therapeutics for glioma” (Bioorg Med Chem, 2021).
# Experiments:
# GL261 = test: Cytotoxicity against mouse GL261 cells assessed as reduction in cell viability incubated for 24 hrs by CCK8 assay; type: functional, cell-based; settings: GL261, 24 h
# Hs 683 = test: Cytotoxicity against human Hs 683 cells assessed as reduction in cell viability incubated for 24 hrs by CCK8 assay; type: functional, cell-based; settings: Hs 683, 24 h
# U-87 MG = test: Cytotoxicity against human U87 cells assessed as reduction in cell viability incubated for 24 hrs by CCK8 assay; type: functional, cell-based, U-87MG ATCC
Structure (SMILES),IC50 (GL261) [µM],IC50 (Hs 683) [µM],IC50 (U-87 MG) [µM]
COc1ccc(N2C(=O)C[C@H](C(=O)NC3CCCCC3)[C@H]2c2ccc(F)cc2)cc1,90.2,84.5,77.9
Cc1ccc([C@H](O)CNC(=O)c2cccc(C)c2C)cc1,74.2,70.3,67.3
NC(=O)C1CCN(C(=O)c2ccc(CSc3nc4cccnc4n3Cc3ccccc3)cc2)CC1,56.7,62.3,60.3
COc1ccc(NS(=O)(=O)c2ccc(NC(=S)NC(=O)C(C)C)cc2)cc1,61.3,53.2,56.7
